According to patent publication US20240316022A1 (TYRA BIOSCIENCES, INC., priority 2021, published 2024):

Key:
Assay in all cases: Kinase binding assay (kinase-tagged T7 phage, qPCR), Kd
[1] = target: T1, FGFR1 (Homo sapiens, UniProt P11362); conditions: read-out: FGFR1 (Kd nM)
T1 construct: made in house; host or cells: E. coli derived from BL21, infected with T7 phage

[2] = target: T2, FGFR2 (Homo sapiens, UniProt P21802); conditions: read-out: FGFR2 (Kd nM)
T2 construct: made in house; host or cells: E. coli derived from BL21, infected with T7 phage

[3] = target: T3, FGFR3 (Homo sapiens, UniProt P22607); conditions: read-out: FGFR3 (Kd nM)
T3 construct: made in house; host or cells: E. coli derived from BL21, infected with T7 phage

[4] = target: T4, FGFR4 (Homo sapiens, UniProt P22455); conditions: read-out: FGFR4 (Kd nM)
T4 construct: made in house; host or cells: E. coli derived from BL21, infected with T7 phage
T4 sequence (P22455 22-802): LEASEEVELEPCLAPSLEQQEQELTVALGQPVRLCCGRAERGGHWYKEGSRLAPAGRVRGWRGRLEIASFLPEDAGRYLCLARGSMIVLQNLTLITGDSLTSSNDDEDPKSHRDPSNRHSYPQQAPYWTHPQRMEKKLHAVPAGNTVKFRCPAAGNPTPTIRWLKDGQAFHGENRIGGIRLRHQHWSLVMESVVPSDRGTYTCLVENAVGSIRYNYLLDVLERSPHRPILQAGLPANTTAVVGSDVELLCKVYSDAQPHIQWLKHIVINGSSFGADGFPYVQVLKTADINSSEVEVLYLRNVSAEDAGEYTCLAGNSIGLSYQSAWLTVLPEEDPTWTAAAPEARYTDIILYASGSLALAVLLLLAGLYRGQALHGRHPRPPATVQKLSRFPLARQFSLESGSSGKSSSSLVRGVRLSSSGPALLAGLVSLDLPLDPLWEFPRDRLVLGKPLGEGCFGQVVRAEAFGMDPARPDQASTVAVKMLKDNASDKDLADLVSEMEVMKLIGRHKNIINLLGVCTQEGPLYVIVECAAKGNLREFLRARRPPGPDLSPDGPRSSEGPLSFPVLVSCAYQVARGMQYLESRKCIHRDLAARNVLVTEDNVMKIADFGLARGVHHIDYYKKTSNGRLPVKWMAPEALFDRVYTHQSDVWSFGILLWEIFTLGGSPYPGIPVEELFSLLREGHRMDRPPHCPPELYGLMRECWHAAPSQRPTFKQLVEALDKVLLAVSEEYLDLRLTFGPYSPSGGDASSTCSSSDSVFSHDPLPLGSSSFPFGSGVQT

T1 sequence (P11362 22-822): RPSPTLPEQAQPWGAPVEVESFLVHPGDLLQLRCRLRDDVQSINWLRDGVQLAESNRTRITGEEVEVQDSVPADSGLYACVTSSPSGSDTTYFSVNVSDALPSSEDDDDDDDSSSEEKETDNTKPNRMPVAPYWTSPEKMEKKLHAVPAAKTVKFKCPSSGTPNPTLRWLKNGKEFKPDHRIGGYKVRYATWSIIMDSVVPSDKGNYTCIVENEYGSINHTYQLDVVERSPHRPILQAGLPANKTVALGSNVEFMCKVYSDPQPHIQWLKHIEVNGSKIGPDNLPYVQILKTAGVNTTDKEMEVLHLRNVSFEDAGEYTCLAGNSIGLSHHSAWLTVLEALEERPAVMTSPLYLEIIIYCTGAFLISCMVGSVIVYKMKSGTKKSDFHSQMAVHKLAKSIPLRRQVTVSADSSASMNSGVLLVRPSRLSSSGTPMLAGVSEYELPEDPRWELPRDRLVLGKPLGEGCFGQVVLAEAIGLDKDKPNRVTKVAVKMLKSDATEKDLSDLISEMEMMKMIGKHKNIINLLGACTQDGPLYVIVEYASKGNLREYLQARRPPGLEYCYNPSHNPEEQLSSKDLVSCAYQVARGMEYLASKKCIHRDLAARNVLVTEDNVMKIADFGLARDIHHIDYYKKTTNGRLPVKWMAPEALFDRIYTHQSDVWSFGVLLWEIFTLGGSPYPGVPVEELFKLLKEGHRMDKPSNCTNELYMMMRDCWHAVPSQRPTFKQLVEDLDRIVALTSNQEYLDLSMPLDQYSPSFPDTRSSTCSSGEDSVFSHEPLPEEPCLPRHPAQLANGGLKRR
T2 sequence (P21802 22-821): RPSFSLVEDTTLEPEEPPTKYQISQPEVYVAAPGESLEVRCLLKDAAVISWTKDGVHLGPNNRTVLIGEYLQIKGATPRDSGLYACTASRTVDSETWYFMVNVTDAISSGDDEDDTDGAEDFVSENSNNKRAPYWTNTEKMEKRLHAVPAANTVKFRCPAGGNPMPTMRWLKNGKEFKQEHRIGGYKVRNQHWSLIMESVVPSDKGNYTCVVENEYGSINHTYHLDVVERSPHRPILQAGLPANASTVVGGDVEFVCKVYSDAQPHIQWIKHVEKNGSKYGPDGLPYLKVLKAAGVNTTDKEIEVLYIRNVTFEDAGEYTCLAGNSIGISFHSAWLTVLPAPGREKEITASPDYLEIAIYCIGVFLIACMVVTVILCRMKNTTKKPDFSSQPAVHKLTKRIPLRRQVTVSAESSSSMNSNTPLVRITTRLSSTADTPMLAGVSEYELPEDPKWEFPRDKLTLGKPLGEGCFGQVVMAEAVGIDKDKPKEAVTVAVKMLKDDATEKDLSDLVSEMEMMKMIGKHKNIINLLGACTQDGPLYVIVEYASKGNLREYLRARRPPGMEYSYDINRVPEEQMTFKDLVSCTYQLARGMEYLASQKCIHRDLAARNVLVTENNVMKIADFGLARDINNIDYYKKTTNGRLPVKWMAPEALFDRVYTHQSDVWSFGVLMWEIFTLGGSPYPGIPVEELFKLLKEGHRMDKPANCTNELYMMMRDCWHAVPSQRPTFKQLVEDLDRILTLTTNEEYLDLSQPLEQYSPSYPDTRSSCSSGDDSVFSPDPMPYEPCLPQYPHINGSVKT
T3 sequence (P22607 23-806): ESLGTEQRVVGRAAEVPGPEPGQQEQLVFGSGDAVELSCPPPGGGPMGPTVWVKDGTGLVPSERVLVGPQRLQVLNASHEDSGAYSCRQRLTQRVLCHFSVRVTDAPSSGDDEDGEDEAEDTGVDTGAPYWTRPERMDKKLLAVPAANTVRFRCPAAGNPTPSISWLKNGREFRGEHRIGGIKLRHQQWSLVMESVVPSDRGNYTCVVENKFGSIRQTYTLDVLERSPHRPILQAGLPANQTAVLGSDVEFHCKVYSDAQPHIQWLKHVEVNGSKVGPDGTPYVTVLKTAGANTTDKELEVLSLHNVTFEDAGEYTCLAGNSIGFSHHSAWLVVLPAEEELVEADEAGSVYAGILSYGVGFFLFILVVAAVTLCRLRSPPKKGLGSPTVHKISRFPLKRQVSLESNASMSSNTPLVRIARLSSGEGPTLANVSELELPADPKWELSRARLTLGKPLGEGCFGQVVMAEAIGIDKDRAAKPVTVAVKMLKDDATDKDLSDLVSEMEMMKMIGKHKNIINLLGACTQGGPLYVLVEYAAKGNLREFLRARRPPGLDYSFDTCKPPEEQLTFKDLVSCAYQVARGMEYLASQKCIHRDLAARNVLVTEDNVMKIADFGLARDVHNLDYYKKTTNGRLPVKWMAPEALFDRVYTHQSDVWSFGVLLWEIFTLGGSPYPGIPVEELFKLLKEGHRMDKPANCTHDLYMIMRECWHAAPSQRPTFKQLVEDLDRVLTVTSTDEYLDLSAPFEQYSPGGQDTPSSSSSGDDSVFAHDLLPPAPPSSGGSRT

Structure (SMILES) | Kd [1] [nM] | Kd [2] [nM] | Kd [3] [nM] | Kd [4] [nM]
Cc1cnnc(C)c1[C@@H](C)Oc1ccc2[nH]nc(-c3cc(C#N)cc(C#N)c3)c2c1 [Example 83, 5-[5-[(1R)-1-(3,5-dimethylpyridazin-4-yl)ethoxy]-1H-indazol-3-yl]benzene-1,3-dicarbonitrile] | 250 to 1000 | > 1000 | 250 to 1000 | 0.1 to 100
COc1cc(-c2n[nH]c3ccc(O[C@H](C)c4c(C)cnnc4C)cc23)cc(C#N)c1OC [Example 76, 5-[5-[(1R)-1-(3,5-dimethylpyridazin-4-yl)ethoxy]-1H-indazol-3-yl]-2,3-dimethoxy-benzonitrile] | 250 to 1000 | > 1000 | 100 to 250 | 0.1 to 100
COc1cc2[nH]nc(-c3cnc4c(c3)NCCO4)c2cc1O[C@H](C)c1c(Cl)cncc1Cl [Example 146] | 0.1 to 100 | 0.1 to 100 | 0.1 to 100 | 0.1 to 100
C[C@@H](Oc1ccc2[nH]nc(-c3cnc(N[C@H]4CCOC4)c(C#N)c3)c2c1)c1c(Cl)cncc1Cl [Example 129, 5-(5-((R)-1-(3,5-dichloropyridin-4-yl)ethoxy)-1H-indazol-3-yl)-2-(((S)-tetrahydrofuran-3-yl)amino)nicotinonitrile] | 0.1 to 100 | 0.1 to 100 | 0.1 to 100 | 0.1 to 100
Cc1cc(-c2n[nH]c3ccc(O[C@H](C)c4c(C)cnnc4C)cc23)cc(C#N)n1 [Example 69, 4-[5-[(1R)-1-(3,5-Dimethylpyridazin-4-yl)ethoxy]-1H-indazol-3-yl]-6-methyl-pyridine-2-carbonitrile] | 100 to 250 | 0.1 to 100 | 0.1 to 100 | 0.1 to 100
COc1cc(-c2n[nH]c3ccc(O[C@H](C)c4c(Cl)cncc4Cl)cc23)cc(C#N)c1OC1CCN(C(C)C)CC1 [Example 126, 5-[5-[(1R)-1-(3,5-dichloro-4-pyridyl)ethoxy]-1H-indazol-3-yl]-2-[(1-isopropyl-4-piperidyl)oxy]-3-methoxy-benzonitrile] | 250 to 1000 | > 1000 | 250 to 1000 | 0.1 to 100
COc1cc(C#N)cc(-c2n[nH]c3ccc(O[C@@H](C)c4c(C)cnnc4C)cc23)c1 [Example 55, 3-[5-[(1S)-1-(3,5-dimethylpyridazin-4-yl)ethoxy]-1H-indazol-3-yl]-5-methoxy-benzonitrile] | > 1000 | > 1000 | > 1000 | 250 to 1000
C[C@@H](Oc1cc2c(-c3cnc(O[C@@H]4CCOC4)c(C#N)c3)n[nH]c2cc1F)c1c(Cl)cncc1Cl [Example 138, 5-(5-((R)-1-(3,5-dichloropyridin-4-yl)ethoxy)-6-fluoro-1H-indazol-3-yl)-2-(((R)-tetrahydrofuran-3-yl)oxy)nicotinonitrile] | 100 to 250 | 250 to 1000 | 0.1 to 100 | 0.1 to 100
Cc1ncc(Cl)c([C@@H](C)Oc2cc3c(-c4cnc5c(c4)N(S(C)(=O)=O)CCO5)n[nH]c3cc2Cl)c1Cl [Example 143, 7-[6-chloro-5-[(1R)-1-(3,5-dichloro-2-methyl-4-pyridyl)ethoxy]-1H-indazol-3-yl]-1-methylsulfonyl-2,3-dihydropyrido[2,3-b][1,4]oxazine] | > 1000 | > 1000 | 100 to 250 | 100 to 250
CCN1CCC2(CCc3cc(-c4n[nH]c5ccc(O[C@H](C)c6c(Cl)cncc6Cl)cc45)ccc3O2)CC1 [Example 121, 6-[5-[(1R)-1-(3,5-dichloro-4-pyridyl)ethoxy]-1H-indazol-3-yl]-1′-ethylspiro[chromane-2,4′-piperidine]] | 0.1 to 100 | 0.1 to 100 | 0.1 to 100 | 0.1 to 100
C[C@@H](Oc1ccc2[nH]nc(-c3cnc(O[C@@H]4CCOC4)c(C#N)c3)c2c1)c1c(Cl)cncc1Cl [Example 134, 5-(5-((R)-1-(3,5-dichloropyridin-4-yl)ethoxy)-1H-indazol-3-yl)-2-(((R)-tetrahydrofuran-3-yl)oxy)nicotinonitrile] | 100 to 250 | 0.1 to 100 | 0.1 to 100 | 0.1 to 100
